Test results reported in PMC9851200, “Multiparameter phenotypic screening for endogenous TFEB and TFE3 translocation identifies novel chemical series modulating lysosome function” (Autophagy, 2022).
Read-outs that look alike come from different tables or passages of the source.

Assays:
Conditions in all cases: PKIS2 primary screening
[1] = tested on: endogenous TFEB; assay: TFEB nuclear translocation, immunocytochemistry high-content imaging; assay type: cell-based
[2] = tested on: endogenous TFE3; assay: TFE3 nuclear translocation, immunocytochemistry high-content imaging; assay type: cell-based
[3] = tested on: SH-SY5Y cells; also: reference of the scale not given here
[4] = tested on: SH-SY5Y cells; assay: AK (adenylate kinase) release ToxiLight cytotoxicity assay; also: reference of the scale not given here
[5] = tested on: SH-SY5Y cells; assay: Nuclear count from microscopy images (cellular growth and toxicity); also: reference of the scale not given here

Row | SMILES | TFEB % [1] [%] | TFE3 % [2] [%] | DQ Intensity [3] | DQ Spot [3] | AK [4] | Nuclear Count [5] | DQ Intensity ([3]; DQ Red BSA intensity) | DQ Spot ([3]; DQ Red BSA spot count)
1 | CCn1c(-c2ccncc2)nc2cnccc21 [UNC10225204A] | 11.18 | 12.32 | 98.92 | 103.23 | 74.70 | 104.87 | – | –
2 | NCCCC(NC(=O)c1cc(Br)c(-c2ccnc3[nH]ccc23)s1)c1ccccc1.O=C(O)C(F)(F)F.O=C(O)C(F)(F)F (stereo not drawn) [UNC10225265A] | 4.66 | 12.13 | – | – | 80.18 | 128.28 | 112.08 | 100.65
3 | Nc1ncnc2scc(-c3ccc(NC(=O)Cc4cc(F)ccc4F)cc3)c12.O=C(O)C(F)(F)F [UNC10225107A] | 8.26 | 9.54 | – | – | 124.57 | 68.49 | 106.01 | 96.58
4 | Nc1cccc(-c2ccc3c(N)n[nH]c3c2)n1 [GSK2192730] | 5.46 | 14.87 | – | – | 126.21 | 95.98 | 80.06 | 98.33
5 | C[C@@H]1CC[C@H](C(=O)NC2CCCCC2)CN1c1cc(-c2ccc3c(N)n[nH]c3c2)nc(N)n1 [GSK2291363] | 3.73 | 16.02 | – | – | 87.12 | 117.58 | 117.06 | 112.54
6 | FC(F)(F)c1ccc(-c2nn3ncccc3c2-c2ccnc(Nc3cccc(C(F)(F)F)c3)n2)cc1 [UNC10225138A] | 4.73 | 11.01 | 102.80 | 109.82 | 86.01 | 92.79 | – | –
7 | CSc1cccc2c(-c3ccncn3)c(-c3ccc(F)cc3)nn12 [UNC10225437A] | 6.79 | 10.83 | 120.45 | 125.69 | 100.64 | 89.95 | – | –
8 | O=c1cc(N2CCOCC2)nc2n(Cc3cccc(Cl)c3)ccn12 [UNC10225131A] | 5.81 | 11.28 | 103.05 | 113.71 | 96.90 | 104.22 | – | –
9 | Cc1ccc2c(-c3ccncc3)c(-c3ccc(F)cc3)nn2c1.Cl [UNC10225321A] | 3.59 | 14.14 | – | – | 67.03 | 114.41 | 88.59 | 94.42
10 | O=C(Nc1cccc(-c2nn3ccccc3c2-c2ccnc(Nc3cccc(F)c3)n2)c1)c1c(F)ccc(F)c1Cl [UNC10225081A] | 11.80 | 13.17 | 135.52 | 127.57 | 69.78 | 54.18 | – | –
11 | O=C(O)C(F)(F)F.O=c1[nH]ccc2nc(N[C@@H]3CCNC3)nc(Nc3cc(Cl)cc(Cl)c3)c12 [UNC10225257A] | 7.01 | 8.28 | 65.99 | 83.26 | 117.20 | 111.57 | – | –
12 | COC(=O)Nc1nc2ccc(Oc3ccc(NC(=O)Nc4cc(C(F)(F)F)ccc4F)cc3)cc2[nH]1 [GW654607] | 5.38 | 33.87 | – | – | 90.67 | 81.29 | 53.63 | 73.16
13 | O=C(Nc1ccc2c(c1)OCO2)NC1CCN(c2ccnc(NCc3ccc(F)cc3)n2)CC1 [GSK1379859] | 6.05 | 12.41 | – | – | 102.69 | 98.68 | 77.50 | 79.61
14 | c1ccc(-c2cnc3nccnn23)cc1 [UNC10225020A] | 8.54 | 11.36 | 109.95 | 119.05 | 125.59 | 110.84 | – | –
15 | Cl.O=C(Nc1cccc(-c2nn3ncccc3c2-c2ccnc(Nc3cccnc3)n2)c1)c1c(F)cccc1F [UNC10225440A] | 7.43 | 9.74 | 138.59 | 122.41 | 101.41 | 119.73 | – | –
16 | COc1cc(Nc2nccc(N3CCC(NC(=O)C4COc5ccccc5O4)C3)n2)cc(OC)c1OC (stereo not drawn) [GSK1379761] | 2.44 | 10.33 | – | – | 96.01 | 125.75 | 95.14 | 97.75
17 | COc1ccc(CNC(=O)NC2CCN(c3ccnc(Nc4ccc(F)cc4)n3)C2)cc1 (stereo not drawn) [GSK1379706] | 2.94 | 11.64 | – | – | 89.40 | 119.74 | 67.21 | 81.58

Row | SMILES | TFEB % [1] [%] | TFE3 % [2] [%] | DQ Intensity [3] | DQ Spot [3] | AK [4] | Nuclear Count [5] | DQ Intensity ([3]; DQ Red BSA intensity) | DQ Spot ([3]; DQ Red BSA spot count)
18 | Fc1cc(Cl)ccc1Nc1ccnc2cc(-c3ccc(CN4CCCCC4)o3)ccc12 [UNC10225220A] | 3.77 | 18.00 | – | – | 82.41 | 76.92 | 113.72 | 129.26
19 | CC(=O)c1c(-c2ccncc2)[nH]c(-c2ccncc2)c1C [UNC10225248A] | 5.93 | 12.82 | 75.03 | 97.66 | 107.07 | 71.54 | – | –
20 | CC(C)c1nc(-c2ccc(F)c(NS(=O)(=O)c3c(F)cccc3F)c2)c(-c2ccnc(Nc3ccc(N4CCOCC4)nc3)n2)s1 [UNC10225089A] | 9.24 | 14.74 | 67.64 | 97.60 | 110.72 | 76.92 | – | –
21 | COC(=O)Nc1nc2ccc(Oc3ccc(NC(=O)Nc4cc(F)ccc4F)cc3)cc2[nH]1 [GW701424] | 4.66 | 22.54 | – | – | 149.19 | 68.78 | 130.75 | 124.31
22 | O=C(Nc1ccc(Oc2ccc3nc(NC(=O)c4ccco4)[nH]c3c2)cc1)Nc1cc(C(F)(F)F)ccc1F [GW683134] | 14.35 | 30.65 | – | – | 83.90 | 71.64 | 82.17 | 71.77
23 | Nc1nccc(-c2c(-c3ccc(F)cc3)ncn2C2CCN(CC(F)(F)F)CC2)n1 [UNC10225173A] | 11.13 | 11.80 | 90.34 | 99.50 | 117.50 | 107.53 | – | –
24 | CC1=C(C(=O)Nc2cc3cn[nH]c3cc2F)C(c2ccc(C(F)(F)F)cc2)CC(=O)N1 (stereo not drawn) [UNC10225339A] | 3.31 | 22.61 | 158.90 | 127.41 | 70.62 | 108.36 | – | –
25 | Cc1ccc(NC(=O)Nc2ccc(Cl)c(C(F)(F)F)c2)cc1-c1ccc(C(=O)Nc2ccncc2)cc1 [UNC10225359A] | 9.28 | 18.34 | 70.67 | 82.92 | 88.88 | 100.74 | – | –
26 | Cc1ccc(Nc2ccnc(Nc3ccc4c(c3)CS(=O)(=O)C4)n2)cc1O [GW579362] | 7.59 | 18.94 | – | – | 117.18 | 72.17 | 160.36 | 117.73
27 | Nc1ncc(-c2cn[nH]c2)c2scc(-c3ccc4c(c3)CCN4C(=O)Cc3ccccc3)c12 [UNC10225500A] | 8.67 | 18.45 | – | – | 74.47 | 110.94 | 108.00 | 96.83
28 | Cc1cc(-c2ccc3c(c2)CC[C@@H](N[C@@H](C)c2ccccc2)C3)cnc1N [GW412617] | 15.77 | 41.99 | – | – | 35.11 | 101.83 | 86.08 | 45.16
29 | COC(=O)C(Cc1ccccc1)NC(=O)NC1CCN(c2ccnc(Nc3ccc(F)cc3)n2)C1 (stereo not drawn) [GSK1379714] | 4.19 | 7.75 | – | – | 95.90 | 110.40 | 97.62 | 115.84
30 | Cc1ccccc1CC(=O)N1CCc2cc(-c3cn(C)c4ncnc(N)c34)ccc21 [UNC10225254A] | 10.80 | 19.37 | 93.20 | 89.69 | 77.66 | 109.34 | – | –
31 | O=C(NCCNc1ccnc(Nc2ccc(F)cc2)n1)Nc1ccc2c(c1)OCO2 [GSK1379882] | 4.46 | 17.40 | – | – | 105.11 | 67.71 | 52.40 | 79.77
32 | Cn1cc(-c2ccc3c(c2)CCN3C(=O)Cc2cc(F)cc(C(F)(F)F)c2)c2c(N)ncnc21 [UNC10225478A] | 5.80 | 18.35 | 103.20 | 103.08 | 72.42 | 95.63 | – | –
33 | CC(C)c1nc(-c2cccc(NS(=O)(=O)c3c(F)cccc3F)c2)c(-c2ccnc(Nc3ccc(N4CCOCC4)nc3)n2)s1.Cl [UNC10225142A] | 18.86 | 11.69 | 106.42 | 109.80 | 81.90 | 103.74 | – | –
34 | O=c1cc(N2CCOCC2)nc2n(Cc3cccc(C(F)(F)F)c3)ccn12 [UNC10225024A] | 3.55 | 12.11 | 73.22 | 100.00 | 84.29 | 98.56 | – | –
